Key:
[1] = Inhibition of recombinant full length NS3/4A protease in Hepatitis C virus subtype 2a replicon infected in human HuH7 cells preincubated for 3 days followed by substrate addition and measured after 2 hrs by renilla luciferase reporter gene assay; type: cell-based; settings: Huh-7
[2] = Inhibition of recombinant full length NS3/4A protease in Hepatitis C virus subtype 1b replicon infected in human HuH7 cells preincubated for 3 days followed by substrate addition and measured after 2 hrs by renilla luciferase reporter gene assay; type: cell-based; settings: Huh-7
[3] = Inhibition of recombinant full length NS3/4A R155K mutant protease in Hepatitis C virus subtype 1a replicon infected in human HuH7 cells preincubated for 3 days followed by substrate addition and measured after 2 hrs by renilla luciferase reporter gene assay; type: cell-based; settings: Huh-7
[4] = Inhibition of recombinant full length NS3/4A protease in Hepatitis C virus subtype 3a infected in human HuH7 cells using Ac-Asp-Glu-Asp (EDANS)-Glu-Glu-Abu-(COO) Ala-Ser-Lys (DABCYL)-NH2 as substrate by FRET assay; settings: Huh-7
[5] = Inhibition of recombinant full length NS3/4A protease in Hepatitis C virus subtype 1a replicon infected in human HuH7 cells preincubated for 3 days followed by substrate addition and measured after 2 hrs by renilla luciferase reporter gene assay; type: cell-based; settings: Huh-7
[6] = Metabolic stability in human liver microsomes assessed as half-life incubated for 5 to 45 mins in presence of NADPH by LC-MS analysis; type: ADME, Microsome; settings: time 5-45 min
[7] = Inhibition of recombinant full length NS3/4A D168V mutant protease in Hepatitis C virus subtype 1b replicon infected in human HuH7 cells preincubated for 3 days followed by substrate addition and measured after 2 hrs by renilla luciferase reporter gene assay; type: cell-based; settings: Huh-7
[8] = Drug concentration in rat plasma at 5 mg/kg, po measured upto 24 hrs; type: ADME, organism-based; settings: read-out: Ct
[9] = Half life in rat at 1 mg/kg, iv; type: ADME, organism-based; settings: in vivo
[10] = Clearance in rat at 1 mg/kg, iv; type: ADME, organism-based; settings: in vivo
[11] = AUC (0 to 24 hrs) in rat at 5 mg/kg, po; type: ADME, organism-based; design: time < 24 hr, route oral, dose 5 mg/kg; settings: in vivo
[12] = Drug concentration in rat liver at 5 mg/kg, po measured upto 24 hrs; type: ADME, organism-based; settings: read-out: Ct
[13] = Inhibition of recombinant full length NS3/4A protease in Hepatitis C virus subtype 3a replicon infected in human HuH7 cells preincubated for 3 days followed by substrate addition and measured after 2 hrs by renilla luciferase reporter gene assay; type: cell-based; settings: Huh-7
[14] = Cmax in rat at 5 mg/kg, po; type: ADME, organism-based; design: route oral, dose 5 mg/kg; settings: in vivo
[15] = Ratio of drug concentration in liver to plasma in rat at 5 mg/kg, po measured upto 24 hrs; type: ADME, organism-based; settings: liver and plasma
[16] = Oral bioavailability in rat at 5 mg/kg; type: ADME, organism-based; settings: in vivo
[17] = Drug concentration in dog plasma at 3 mg/kg, po measured upto 24 hrs; type: ADME, organism-based, Canis lupus familiaris; settings: read-out: Ct
[18] = Half-life in cynomolgus monkey at 3 mg/kg, po or 1 mg/kg, iv; type: ADME, organism-based, Macaca fascicularis; settings: in vivo
[19] = Half-life in dog at 3 mg/kg, po or 1 mg/kg, iv; type: ADME, organism-based, Canis lupus familiaris; settings: in vivo
[20] = Clearance in dog at 3 mg/kg, po or 1 mg/kg, iv; type: ADME, organism-based, Canis lupus familiaris; settings: in vivo
[21] = AUC in dog at 3 mg/kg, po or 1 mg/kg, iv; type: ADME, organism-based, Canis lupus familiaris; design: dose 3 mg/kg; settings: in vivo
[22] = Clearance in rat at 5 mg/kg, po or 1 mg/kg, iv; type: ADME, organism-based; settings: in vivo
[23] = AUC in rat at 5 mg/kg, po or 1 mg/kg, iv; type: ADME, organism-based; design: dose 5 mg/kg; settings: in vivo
[24] = AUC in cynomolgus monkey at 3 mg/kg, po or 1 mg/kg, iv; type: ADME, organism-based, Macaca fascicularis; design: dose 3 mg/kg; settings: in vivo

| SMILES | EC50 [1] | EC50 [2] | EC50 [3] | IC50 [4] | EC50 [5] | half-life [6] | EC50 [7] | EC50 [13] | other results |
| --- | --- | --- | --- | --- | --- | --- | --- | --- | --- |
| CC[C@@H]1C[C@H](C)CC/C=C\[C@@H]2C[C@@]2(C(=O)NS(=O)(=O)C2CC2)NC(=O)[C@@H]2C[C@@H](Oc3ncc(OC)c4ccccc34)CN2C(=O)[C@H]1NC(=O)OC(C)(C)C | 5.1 nM | 1.5 nM | 12.6 nM | 0.16 nM | 2.2 nM | 8.6 min | 18 nM | – | – |
| CC[C@@H]1C[C@H](C)CC/C=C\[C@@H]2C[C@@]2(C(=O)NS(=O)(=O)C2CC2)NC(=O)[C@@H]2C[C@@H](Oc3ncc(OC)c4ccccc34)CN2C(=O)[C@H]1NC(=O)OC(C)(C)C(F)(F)F | 1.5 nM | 0.5 nM | 8.3 nM | 1.2 nM | 1 nM | 37.7 min | 17 nM | 8 nM | concentration at 24 h [8]: 0.072 µM; half-life [9]: 288 min; clearance [10]: 0.344 L/h/kg; AUC(0-t) at 24 h [11]: 18.8 µM·h; concentration at 24 h [12]: 2.36 µM; Cmax [14]: 2.95 µM; Kp at 24 h [15]: 33; bioavailability [16]: 61% |
| COc1cnc(O[C@@H]2C[C@H]3C(=O)N[C@]4(C(=O)NS(=O)(=O)C5CC5)C[C@H]4/C=C\CC[C@@H](C)C[C@@H](C)[C@H](NC(=O)OC(C)(C)C)C(=O)N3C2)c2cc(Cl)ccc12 | 1.2 nM | 0.6 nM | 4 nM | 4.4 nM | 1.2 nM | 6.7 min | 1.3 nM | – | – |
| COc1cnc(O[C@@H]2C[C@H]3C(=O)N[C@]4(C(=O)NS(=O)(=O)C5CC5)C[C@H]4/C=C\CC[C@H](C)C[C@@H](C)[C@H](NC(=O)OC(C)(C)C)C(=O)N3C2)c2cc(Cl)ccc12 | 19 nM | 4 nM | 700 nM | 50 nM | 5 nM | – | 25 nM | – | – |
| CC[C@@H]1C[C@H](C)CC/C=C\[C@@H]2C[C@@]2(C(=O)NS(=O)(=O)C2(C)CC2)NC(=O)[C@@H]2C[C@@H](Oc3ncc(OC)c4ccccc34)CN2C(=O)[C@H]1NC(=O)OC(C)(C)C(F)(F)F | 1.1 nM | 0.4 nM | 5.4 nM | 1.9 nM | 0.8 nM | 23 min | 5.4 nM | 7.4 nM | concentration at 24 h [8]: 0.229 µM; half-life [9]: 438 min; clearance [10]: 0.102 L/h/kg; AUC(0-t) at 24 h [11]: 22.5 µM·h; concentration at 24 h [12]: 2.67 µM; Cmax [14]: 3.03 µM; Kp at 24 h [15]: 12; bioavailability [16]: 42% |
| CC[C@@H]1CCCC/C=C\[C@@H]2C[C@@]2(C(=O)NS(=O)(=O)C2CC2)NC(=O)[C@@H]2C[C@@H](Oc3ncc(OC)c4ccc(Cl)cc34)CN2C(=O)[C@H]1NC(=O)OC(C)(C)C(F)(F)F | 2.1 nM | 0.47 nM | 45.2 nM | 29.5 nM | 0.84 nM | 48 min | 4.8 nM | – | – |
| COc1cnc(O[C@@H]2C[C@H]3C(=O)N[C@]4(C(=O)NS(=O)(=O)C5CC5)C[C@H]4/C=C\CCCC[C@@H](C)[C@H](NC(=O)OC(C)(C)C(F)(F)F)C(=O)N3C2)c2ccccc12 | 1.5 nM | 0.3 nM | 11.5 nM | 2.2 nM | 0.8 nM | 18.6 min | 21 nM | 37.3 nM | – |
| COc1cnc(O[C@@H]2C[C@H]3C(=O)N[C@]4(C(=O)NS(=O)(=O)C5CC5)C[C@H]4/C=C\CCCC[C@@H](C)[C@H](NC(=O)OC(C)(C)C)C(=O)N3C2)c2cc(Cl)ccc12 | 1.1 nM | 0.25 nM | 10.7 nM | 11 nM | 0.9 nM | 11.5 min | 1.9 nM | 75.5 nM | – |
| COc1cnc(O[C@@H]2C[C@H]3C(=O)N[C@]4(C(=O)NS(=O)(=O)C5CC5)C[C@H]4/C=C\CCCCC[C@H](NC(=O)OC(C)(C)C)C(=O)N3C2)c2cc(Cl)ccc12 | – | – | – | 51 nM | – | 6.4 min | – | – | – |
| C[C@@H]1CC/C=C\[C@@H]2C[C@@]2(C(=O)NS(=O)(=O)C2CC2)NC(=O)[C@@H]2C[C@@H](Oc3nccc4ccc(F)cc34)CN2C(=O)[C@@H](NC(=O)OC(C)(C)C(F)(F)F)[C@H](C)C1 | 3 nM | 0.3 nM | 21 nM | 20 nM | 1 nM | 10 min | – | 196 nM | – |
| [2H]C([2H])([2H])Oc1cnc(O[C@@H]2C[C@H]3C(=O)N[C@]4(C(=O)NS(=O)(=O)C5(C)CC5)C[C@H]4/C=C\CC[C@@H](C)C[C@@H](C)[C@H](NC(=O)OC(C)(C)C(F)(F)F)C(=O)N3C2)c2ccccc12 | 0.5 nM | 0.4 nM | 1.6 nM | – | 0.6 nM | 18 min | 2.3 nM | 4 nM | – |
| COc1cnc(O[C@@H]2C[C@H]3C(=O)N[C@]4(C(=O)NS(=O)(=O)C5CC5)C[C@H]4/C=C\CCCC[C@@H](C)[C@H](NC(=O)OC(C)(C)C(F)(F)F)C(=O)N3C2)c2cc(Cl)ccc12 | 1.7 nM | 0.48 nM | 17.9 nM | 12.8 nM | 0.6 nM | 30.3 min | 6.8 nM | 42.5 nM | – |
| COc1cnc(O[C@@H]2C[C@H]3C(=O)N[C@]4(C(=O)NS(=O)(=O)C5(C)CC5)C[C@H]4/C=C\CC[C@@H](C)C[C@@H](C)[C@H](NC(=O)OC(C)(C)C(F)(F)F)C(=O)N3C2)c2ccccc12 | 0.6 nM | 0.3 nM | 1.6 nM | 0.9 nM | 0.8 nM | 15 min | 4.7 nM | 5 nM | concentration at 24 h [8]: 0.226 µM; half-life [9]: 342 min; clearance [10]: 0.102 L/h/kg; AUC(0-t) at 24 h [11]: 34.2 µM·h; concentration at 24 h [12]: 5.74 µM; Cmax [14]: 5.29 µM; Kp at 24 h [15]: 25; bioavailability [16]: 60% |
| C=C[C@@H]1C[C@]1(NC(=O)[C@@H]1C[C@@H](Oc2ncc(OC)c3ccc(Cl)cc23)CN1C(=O)[C@@H](NC(=O)OC(C)(C)C)C(C)(C)C)C(=O)NS(=O)(=O)C1CC1 | 217 nM | 1.2 nM | 150 nM | 395 nM | 4 nM | – | 187 nM | 407 nM | concentration at 24 h [17]: < 0.01 µM; concentration at 24 h [8]: 0.033 µM; half-life [18]: 78 min; half-life [19]: 60 min; clearance [20]: 1.12 L/h/kg; concentration at 24 h [12]: 15 µM; AUC [21]: 2.2 µM·h; clearance [22]: 2.28 L/h/kg; AUC [23]: 1.2 µM·h; bioavailability [16]: 14%; AUC [24]: 0.65 µM·h |

Source: ChEMBL document CHEMBL4765464, “Discovery of BMS-986144, a Third-Generation, Pan-Genotype NS3/4A Protease Inhibitor for the Treatment of Hepatitis C Virus Infection” (J Med Chem, 2020)
